Reference: PMC3584063, “Biochemical and Functional Studies on the Burkholderia cepacia Complex bceN Gene, Encoding a GDP-D-Mannose 4,6-Dehydratase” (PLoS ONE, 2013)

Columns and labels:
[1] = molecular target: T1, BceN (GDP-D-mannose 4,6-dehydratase) (Burkholderia cenocepacia, UniProt B4EFL2); experiment: 1H NMR enzyme kinetics with purified protein (substrate turnover and substrate inhibition), […]°C, pH […]; type: biochemical
T1 construct: gene gca; full-length, C-terminally 6×His-tagged BceN, tetramer

[2] = molecular target: 6×His-tagged BceN protein of Burkholderia cenocepacia J2315 (GDP-D-mannose 4,6-dehydratase) (Burkholderia cenocepacia J2315); experiment: native gel or EMSA; discontinuous native PAGE, 8% polyacrylamide, 200 mM Tris-Cl pH 8.8, 4°C, 100 V, 2 h; 6 µg purified 6×His-tagged BceN; aliquot with GMD activity; mass standards catalase, aldolase, BSA, ovalbumin

Row | stoichiometry N [2] | Compound | Ki [1]
1 |  | Nc1nc2c(ncn2[C@@H]2O[C@H](COP(=O)(O)OP(=O)(O)O[C@H]3O[C@H](CO)[C@@H](O)[C@H](O)[C@@H]3O)[C@@H](O)[C@H]2O)c(=O)[nH]1 [A, GDP-D-mannose] | 2910 ± 350 µM
2 | 4 | 6×His-tagged BceN protein of Burkholderia cenocepacia J2315 (GDP-D-mannose 4,6-dehydratase) (enzyme) | 
